In patent publication US11014934B2, “Antiseptic drug” (AO “TATKHIMFARMPREPARATY”, priority 2017, dated 2021):
Like-named read-outs stand apart in the source and are kept apart here.

Legend:
Assay in all cases: MIC, serial dilutions in Müller-Hinton broth
Assay type in all cases: cell-based
Kl. pneumoniae 1812 PR = tested on: Kl. pneumoniae 1812 PR
Experimental: (§1) A comparative assessment of the spectrum of antibacterial action was carried out on archival and clinical strains of gram-positive and gram-negative microorganisms in accordance with the [Opredeleniye chuvstvitel'nosti mikroorganizmov k antibakterial'nym preparatam (Metodicheskiye ukazaniya MUK 4.2.1890-04). Utverzhdeny i vvedeny v deystviye Glavnym gosudarstvennym sanitarnym vrachom Rossiyskoy Federatsii G. G. Onishchenko 04.03.2004 g. Determination of the sensitivity of microorganisms to antibacterial drugs (Guidelines MUK 4.2.1890-04). Approved and put into effect by the Chief State Sanitary Doctor of the Russian Federation G. G. Onishchenko on 4 Mar. 2004].
(§2) The value of the minimum inhibitory concentration (MIC) was determined by the method of serial dilutions on Müller-Hinton broth using 96-well sterile plates. Two-fold dilutions of the test substances in a nutrient medium were prepared. The final concentrations were 1-128 ug/ml. The growth of cultures was assessed visually, comparing the growth of microorganisms in the presence of test compounds with the growth of culture without them. […] The first lowest concentration of the studied substance (from a series of consecutive dilutions), where bacterial growth is not visually determined, is considered to be the minimum inhibitory concentration (MIC). MIC was determined by the method of serial dilutions in broth with increment=2, so the differences of neighboring dilutions are not considered to be significant. In each experience there is a positive (broth with growing culture) and a negative (broth without growing culture) control.
(§3) To determine the MIC, 10 μl of culture medium was taken from those wells in which growth was not observed, and inoculation was performed on a dense Müller-Hinton broth. For the preparation of the inoculum, a pure, daily culture of gram-positive and gram-negative microorganisms grown on a dense nutrient medium was used. Nutrient medium is Müller-Hinton broth, which was prepared from dry media (Müller-Hinton broth, Acumedia, Baltimore), cultivation was carried out on agarized Müller-Hinton broth, including an additional 2% agar. The media were autoclaved at 121° C. for 15 minutes. In a sterile isotonic solution of sodium chloride, a suspension of microorganisms was prepared, adjusting the inoculum density to 0.5 according to the McFarland standard (1.5·10^8 CFU/ml). Then, the resulting inoculum was diluted to a concentration of 10^7 CFU/ml with Müller-Hinton broth. The inoculum was used within 15 minutes after preparation; the purity of the bacterial strains was monitored before each experiment.
(§4) 100 μl of Müller-Hinton broth was added to the wells of each plate; The tested substance was introduced into the first well at a concentration of 128 μg/ml in a volume of 100 μl and its concentration was adjusted to 0.5 μg/ml by consecutive two-fold dilution. Then, the prepared inoculum (100 μI) was added to each well, thereby diluting twice the concentration of the studied compounds. […] In addition, the purity of nutrient media and solvents was monitored. The plates were incubated in a thermostat at 37° C. for 24 hours. The growth of cultures was assessed visually, comparing the growth of microorganisms in the presence of test compounds with the growth of culture without them.
(§5) For the MIC was taken the minimum concentration of the studied compounds, providing complete suppression of the visible growth of the studied strains of microorganisms. The maximum value obtained in three independent experiments was taken as the MIC of the compound.

E. faecium 31 = tested on: E. faecium 31
Experimental: as §1, §2, §3, §4, §5

Kl. pneumoniae 1781 = tested on: Kl. pneumoniae 1781
Experimental: as §1, §2, §3, §4, §5

Acinetobacter spp. 3 = tested on: Acinetobacter spp. 3
Experimental: as §1, §2, §3, §4, §5

Moraxella sp.834 = tested on: Moraxella sp.834
Experimental: as §1, §2, §3, §4, §5

Moraxella sp. 765 = tested on: Moraxella sp. 765
Experimental: as §1, §2, §3, §4, §5

[1] = tested on: Ps. aeruginosa ATTC 27853
Experimental: as §1, §2, §3, §4, §5

E. faecalis 3051 = tested on: E. faecalis 3051
Experimental: as §1, §2, §3, §4, §5

S. aureus 1167 MRSA = tested on: S. aureus 1167 MRSA
Experimental: as §1, §2, §3, §4, §5

E. faecium 4402 = tested on: E. faecium 4402
Experimental: as §1, §2, §3, §4, §5

S. intermedius 1143 MRSA = tested on: S. intermedius 1143 MRSA
Experimental: as §1, §2, §3, §4, §5

Pseudomonas spp.6 = conditions: inoculum 10^7 CFU/ml
Experimental: as §1, §2, §3, §4, §5

E. faecium 27 = tested on: E. faecium 27
Experimental: as §1, §2, §3, §4, §5

A. baumannii 1425 PR = tested on: A. baumannii 1425 PR
Experimental: as §1, §2, §3, §4, §5

Moraxella sp. 764 = tested on: Moraxella sp. 764
Experimental: as §1, §2, §3, §4, §5

Klebsiella spp. 11 = tested on: Klebsiella spp. 11
Experimental: as §1, §2, §3, §4, §5

S. aureus 2020 MRSA = tested on: S. aureus 2020 MRSA
Experimental: as §1, §2, §3, §4, §5

Serratia spp. 15 = tested on: Serratia spp. 15
Experimental: as §1, §2, §3, §4, §5

Moraxella sp.829 = tested on: Moraxella sp.829
Experimental: as §1, §2, §3, §4, §5

S. aureus 21 = tested on: S. aureus 21
Experimental: as §1, §2, §3, §4, §5

B. subtilis 168 = tested on: B. subtilis 168
Experimental: as §1, §2, §3, §4, §5

E. faecium 3030 = tested on: E. faecium 3030
Experimental: as §1, §2, §3, §4, §5

## CCCCCCCCCCCC[N+](C)(C)Cc1cnc(C[N+](C)(C)CCCCCCCCCCCC)c2c1COC(CC)O2 (stereo not drawn) [Compound I, 5,8-(Bis(methylene (N, N-dimethyl-N-dodecylammonium))-2-ethyl-4H-[1,3]dioxino [4,5-c]pyridiniumdichloride]
Kl. pneumoniae 1812 PR; Klebsiella pneumoniae, Kl. pneumoniae 1812 PR, inoculum 10^7 CFU/ml, read-out: MIC
  MIC: 64 µg/mL
E. faecium 31; Enterococcus faecium, E. faecium 31, inoculum 10^7 CFU/ml, read-out: MIC
  MIC: 0.03 µg/mL
Kl. pneumoniae 1781; Klebsiella pneumoniae, Kl. pneumoniae 1781, inoculum 10^7 CFU/ml, read-out: MIC
  MIC: 2 µg/mL
Acinetobacter spp. 3; Acinetobacter spp. 3, inoculum 10^7 CFU/ml, read-out: MIC
  MIC: 8 µg/mL
Moraxella sp.834; Moraxella sp.834, inoculum 10^7 CFU/ml, read-out: MIC
  MIC: 4 µg/mL
Moraxella sp. 765; Moraxella sp. 765, inoculum 10^7 CFU/ml, read-out: MIC
  MIC: 4 µg/mL
[1]; Pseudomonas aeruginosa, ATTC27853, Ps. aeruginosa ATTC 27853, inoculum 10^7 CFU/ml, read-out: MIC
  MIC: 4 µg/mL
E. faecalis 3051; Enterococcus faecalis, E. faecalis 3051, inoculum 10^7 CFU/ml, read-out: MIC
  MIC: 4 µg/mL
S. aureus 1167 MRSA; Staphylococcus aureus, S. aureus 1167 MRSA, inoculum 10^7 CFU/ml, read-out: MIC
  MIC: 4 µg/mL
E. faecium 4402; Enterococcus faecium, E. faecium 4402, inoculum 10^7 CFU/ml, read-out: MIC
  MIC: 0.06 µg/mL
S. intermedius 1143 MRSA; S. intermedius 1143 MRSA, inoculum 10^7 CFU/ml, read-out: MIC
  MIC: 4 µg/mL
Pseudomonas spp.6; read-out: MIC
  MIC: 16 µg/mL
E. faecium 27; Enterococcus faecium, E. faecium 27, inoculum 10^7 CFU/ml, read-out: MIC
  MIC: 0.03 µg/mL
A. baumannii 1425 PR; Acinetobacter baumannii, A. baumannii 1425 PR, inoculum 10^7 CFU/ml, read-out: MIC
  MIC: 8 µg/mL
Moraxella sp. 764; Moraxella sp. 764, inoculum 10^7 CFU/ml, read-out: MIC
  MIC: 8 µg/mL
Klebsiella spp. 11; Klebsiella spp. 11, inoculum 10^7 CFU/ml, read-out: MIC
  MIC: 16 µg/mL
S. aureus 2020 MRSA; Staphylococcus aureus, S. aureus 2020 MRSA, inoculum 10^7 CFU/ml, read-out: MIC
  MIC: 4 µg/mL
Serratia spp. 15; Serratia spp. 15, inoculum 10^7 CFU/ml, read-out: MIC
  MIC: 16 µg/mL
Moraxella sp.829; Moraxella sp.829, inoculum 10^7 CFU/ml, read-out: MIC
  MIC: 4 µg/mL
S. aureus 21; Staphylococcus aureus, S. aureus 21, inoculum 10^7 CFU/ml, read-out: MIC
  MIC: 1 µg/mL
B. subtilis 168; Bacillus subtilis, B. subtilis 168, inoculum 10^7 CFU/ml, read-out: MIC
  MIC: 2 µg/mL
E. faecium 3030; Enterococcus faecium, E. faecium 3030, inoculum 10^7 CFU/ml, read-out: MIC
  MIC: 1 µg/mL

## CCCCCCCCCCCCCC(=O)NCCC[N+](C)(C)Cc1ccccc1.O.[Cl-] [Miramistin, benzyldimethyl [3-(myristoylamino)propyl]-ammonium chloride monohydrate]
Kl. pneumoniae 1812 PR; Klebsiella pneumoniae, 1812PR
  MIC: 64 µg/mL
E. faecium 31; Enterococcus faecium, 31
  MIC: 4 µg/mL
Kl. pneumoniae 1781; Klebsiella pneumoniae, 1781
  MIC: 64 µg/mL
Acinetobacter spp. 3; Acinetobacter, SPP.3
  MIC: 64 µg/mL
Moraxella sp.834; Moraxella, SP.834
  MIC: 32 µg/mL
Moraxella sp. 765; Moraxella, SP.765
  MIC: 64 µg/mL
[1]; Pseudomonas aeruginosa, ATTC27853
  MIC: > 64 µg/mL
E. faecalis 3051; Enterococcus faecalis, 3051
  MIC: 2 µg/mL
S. aureus 1167 MRSA; Staphylococcus aureus, MRSA
  MIC: 4 µg/mL
E. faecium 4402; Enterococcus faecium, 4402
  MIC: 4 µg/mL
S. intermedius 1143 MRSA
  MIC: 8 µg/mL
Pseudomonas spp.6; read-out: MIC
  MIC: > 64 µg/mL
E. faecium 27; Enterococcus faecium, 27
  MIC: 32 µg/mL
A. baumannii 1425 PR; Acinetobacter baumannii, 1425PR
  MIC: 64 µg/mL
Moraxella sp. 764; Moraxella, SP.764
  MIC: 64 µg/mL
Klebsiella spp. 11; Klebsiella, SPP.11
  MIC: 64 µg/mL
S. aureus 2020 MRSA; Staphylococcus aureus, MRSA
  MIC: 8 µg/mL
Serratia spp. 15; Serratia, SPP.15
  MIC: > 64 µg/mL
Moraxella sp.829; Moraxella, SP.829
  MIC: 32 µg/mL
S. aureus 21; Staphylococcus aureus, 21
  MIC: 16 µg/mL
B. subtilis 168; Bacillus subtilis, 168
  MIC: 2 µg/mL
E. faecium 3030; Enterococcus faecium, 3030
  MIC: 0.5 µg/mL

## alkyldimethyl(phenylmethyl) ammonium chloride [Benzalconium chloride]
Kl. pneumoniae 1812 PR; Kl. pneumoniae 1812 PR, inoculum 10^7 CFU/ml
  MIC: 64 µg/mL
E. faecium 31; E. faecium 31, inoculum 10^7 CFU/ml
  MIC: <0.5 µg/mL
Kl. pneumoniae 1781; Kl. pneumoniae 1781, inoculum 10^7 CFU/ml
  MIC: 16 µg/mL
Acinetobacter spp. 3; Acinetobacter spp. 3, inoculum 10^7 CFU/ml
  MIC: 4 µg/mL
Moraxella sp.834; Moraxella sp.834, inoculum 10^7 CFU/ml
  MIC: 2 µg/mL
Moraxella sp. 765; Moraxella sp. 765, inoculum 10^7 CFU/ml
  MIC: 32 µg/mL
[1]; Ps. aeruginosa ATTC 27853, inoculum 10^7 CFU/ml
  MIC: >64 µg/mL
E. faecalis 3051; E. faecalis 3051, inoculum 10^7 CFU/ml
  MIC: 2 µg/mL
S. aureus 1167 MRSA; S. aureus 1167 MRSA, inoculum 10^7 CFU/ml
  MIC: 2 µg/mL
E. faecium 4402; E. faecium 4402, inoculum 10^7 CFU/ml
  MIC: 1 µg/mL
S. intermedius 1143 MRSA; S. intermedius 1143 MRSA, inoculum 10^7 CFU/ml
  MIC: 4 µg/mL
Pseudomonas spp.6
  MIC: 16 µg/mL
E. faecium 27; E. faecium 27, inoculum 10^7 CFU/ml
  MIC: 0.5 µg/mL
A. baumannii 1425 PR; A. baumannii 1425 PR, inoculum 10^7 CFU/ml
  MIC: 32 µg/mL
Moraxella sp. 764; Moraxella sp. 764, inoculum 10^7 CFU/ml
  MIC: 4 µg/mL
Klebsiella spp. 11; Klebsiella spp. 11, inoculum 10^7 CFU/ml
  MIC: 2 µg/mL
S. aureus 2020 MRSA; S. aureus 2020 MRSA, inoculum 10^7 CFU/ml
  MIC: 4 µg/mL
Serratia spp. 15; Serratia spp. 15, inoculum 10^7 CFU/ml
  MIC: 2 µg/mL
Moraxella sp.829; Moraxella sp.829, inoculum 10^7 CFU/ml
  MIC: 32 µg/mL
S. aureus 21; S. aureus 21, inoculum 10^7 CFU/ml
  MIC: <0.5 µg/mL
B. subtilis 168; B. subtilis 168, inoculum 10^7 CFU/ml
  MIC: 0.5 µg/mL
E. faecium 3030; E. faecium 3030, inoculum 10^7 CFU/ml
  MIC: 0.5 µg/mL
